Results from US20090192191A1, “Substituted hydroxamic acid derivatives as tnf inhibitors” (priority 2004, published 2009).

Test system: TNF-α
Experiment: In vitro screening for TNF-α inhibitory activity using rat whole blood assay
Format: cell-based
Conditions: 10 μM test substance, LPS 1 μg/mL, 5 h at 37° C, plasma TNF-α by ELISA; for inhibition at 10 µM: read-out: % of TNF-α inhibition at 10 μM dose
Procedure: In Vitro Screening for TNF-α Inhibitory Activity Using Rat Whole Blood Assay:
Rats were deeply anaesthetized with anesthetic ether and blood (6-8 mL) was collected through retro-orbital plexus in a tube containing heparin (100 IU/mL). Five hundred microlitre blood sample was incubated with different concentrations of the test substances for 15 min at 37° C. LPS (1 μg/mL, final concentration) was subsequently added and the mixture was further incubated for 5 h at 37° C. The reaction was terminated by placing the samples over ice for 15 min. The samples were then centrifuged at 1000 g for 15 min at 4° C. The plasma was separated and stored in deep freezer until the assay. TNF-α levels were estimated in the treated plasma samples by ELISA method using commercially available kit (R&D System, Inc., USA). The inhibition of the TNF-α[…] production may be taken as an indicator of inhibition of TACE activity.

| Molecule | % of TNF-α inhibition at 10 μM dose [%] | inhibition at 10 µM [%] |
| --- | --- | --- |
| 2-3-Amino-3-{4-[2-(4-methoxy)phenyl)-quinolin-4-ylmethoxy]-phenyl}-2-oxo-pyrrolidin-1-yl)-4-methyl-pentanoic acid hydroxyamide [Compound 14] | 85 | – |
| 2-{3-Amino-2-oxo-3-[4-2-p-tolyl-quinolin-4-ylmethoxy)-phenyl]-pyrrolidin-1-yl}-N-hydroxy-propionamide [Compound 9] | 82 | – |
| 2-{3-Amino-2-oxo-3-[4-(2-p-tolylsuinolin-4-ylmethoxy)-phenyl]-pyrrolidin-1-yl}-4-methyl-pentanoic acid hydroxyamide [Compound 8] | 84 | – |
| COc1ccc(-c2cc(COc3ccc([C@]4(N)CCN([C@H](C)C(=O)NO)C4=O)cc3)c3ccccc3n2)cc1 (stereo in doubt) [Compound 15, 2-(3-Amino-3-{4-[2-(4-methoxy-phenyl}-quinolin-4-ylmethoxy]-phenyl)-2-oxo-pyrrolidin-1-yl)-N-hydroxy-propionamide] | – | 84 |
| COCc1cc(COc2ccc([C@]3(N)CCN([C@H](CC(C)C)C(=O)NO)C3=O)cc2)c2ccccc2n1 [Compound 2] | – | 92 |
| CC(C)CC(C(=O)NO)N1CCC(N)(c2ccc(OCc3cc(COC(C)C)nc4ccccc34)cc2)C1=O (centres unmarked) [Compound 5] | 94 | – |
| COCCc1cc(COc2ccc(C3(N)CCN(C(CC(C)C)C(=O)NO)C3=O)cc2)c2ccccc2n1 (centres unmarked) [Compound 7, 2-(3-Amino-3-{4-[2-(2-methoxy-ethyl)quinolin-4-ylmethoxy]-phenyl}-2-oxo-pyrrolidin-1-yl)-4-methyl-pentanoic acid hydroxyamide] | – | 85 |
| COc1cccc(-c2cc(COc3ccc(C4(N)CCN(C(CC(C)C)C(=O)NO)C4=O)cc3)c3ccccc3n2)c1 (centres unmarked) [Compound 27] | 79 | – |
